Among the data in patent publication US20260242419A1, “A CYCLIC PEPTIDE FOR TRAPPING INTERLEUKIN-1 BETA” (Merck Sharp & Dohme LLC, priority 2023, published 2026) are IC50 values, retold here.

As usually defined, the IC50 is the concentration that gives 50% inhibition.

SMILES strings stand for the structures. Non-standard residues stand in square brackets, D forms with d. Residues, ends and D or L forms follow the SMILES beside them. dPro(4R-(4-pyridylmethyl)) = O=C(O)[C@H]1C[C@@H](Cc2ccncc2)CN1; Trp(βS-Me,4-F) = C[C@@H](c1c[nH]c2cccc(F)c12)[C@H](N)C(=O)O; Bip(4'-COOH) = N[C@@H](Cc1ccc(-c2ccc(C(=O)O)cc2)cc1)C(=O)O; Ala(1-bicyclo(1.1.1)pentyl) = N[C@@H](CC12CC(C1)C2)C(=O)O; Ala(pyrimidin-5-yl) = N[C@@H](Cc1cncnc1)C(=O)O; Phe(4-COOH) = N[C@@H](Cc1ccc(C(=O)O)cc1)C(=O)O; Pro(cis-4-F) = O=C(O)[C@@H]1C[C@H](F)CN1; Ala(4-THP) = N[C@@H](CC1CCOCC1)C(=O)O; cisHyp = O=C(O)[C@@H]1C[C@H](O)CN1; 4Pal = N[C@@H](Cc1ccncc1)C(=O)O; aThr = C[C@H](O)[C@H](N)C(=O)O; αMeD = C[C@](N)(CC(=O)O)C(=O)O; d(αMeS) = C[C@@](N)(CO)C(=O)O; Dab = NCC[C@H](N)C(=O)O; Aib = CC(C)(N)C(=O)O; Sar = CNCC(=O)O

This assay deals with T1, IL-1β (Homo sapiens, UniProt P01584).
T1 construct: purchased BioLegend 579404
T1 sequence (P01584 117-269): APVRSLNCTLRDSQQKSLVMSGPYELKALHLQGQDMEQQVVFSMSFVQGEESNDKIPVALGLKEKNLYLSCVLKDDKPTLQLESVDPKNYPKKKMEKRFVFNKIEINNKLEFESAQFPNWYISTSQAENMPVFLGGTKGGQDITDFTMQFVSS
Nature of the assay: IL-6 assay in MRC5 cells: inhibition of IL-1β induced IL-6 secretion (AlphaLISA). Particulars: inhibition of IL-1β induced IL-6 secretion in MRC5 cells; read-out: MRC5 IC50. Type of assay: cell-based. In a few lines:
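Compound was pre-incubated 1 h at ambient temperature with recombinant human IL-1β at 2λ EC80 before adding human lung fibroblast MRC5 cells (3000/well) in EMEM with 0.025% BSA. After overnight culture at 37 °C, 5% CO2, secreted IL-6 in conditioned medium was measured by AlphaLISA; IC50 from 4-parameter logistic fits.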
In general terms: Alpha assays give light when donor and acceptor beads are brought close together.
Turning to `C[C@@H](c1c[nH]c2cccc(F)c12)[C@@H]1NC(=O)[C@@H]2C[C@H](F)CN2C(=O)CNC(=O)[C@H](Cc2ccc(C(=O)O)cc2)NC(=O)[C@H](Cc2ccncc2)NC(=O)[C@H](Cc2ccc(-c3ccc(C(=O)O)cc3)cc2)NC(=O)[C@H]2C[C@@H](Cc3ccncc3)CN2C(=O)CNC(=O)[C@H](CCN)NC(=O)[C@H](CCC(N)=O)NC(=O)[C@H](CC2CCOCC2)NC(=O)[C@](C)(CC(=O)O)NC(=O)[C@H](Cc2c[nH]c3ccccc23)NC(=O)[C@H](CO)NC(=O)C(C)(C)NC1=O` [Example 200] (cyclo([Bip(4'-COOH)][4Pal][Phe(4-COOH)]G[Pro(cis-4-F)][Trp(βS-Me,4-F)][Aib]SW[αMeD][Ala(4-THP)]Q[Dab]G[dPro(4R-(4-pyridylmethyl))])), the half-inhibitory concentration (IC50) worked out at 0.014 nM. Under `C[C@@H](c1c[nH]c2cccc(F)c12)[C@@H]1NC(=O)[C@@H]2C[C@H](O)CN2C(=O)CNC(=O)[C@H](Cc2ccc(C(=O)O)cc2)NC(=O)[C@H](Cc2ccncc2)NC(=O)[C@H](Cc2ccc(-c3ccc(C(=O)O)cc3)cc2)NC(=O)[C@H]2C[C@@H](Cc3ccncc3)CN2C(=O)CNC(=O)[C@H](CCN)NC(=O)[C@H](CCC(N)=O)NC(=O)[C@H](CC2CCOCC2)NC(=O)[C@](C)(CC(=O)O)NC(=O)[C@H](Cc2c[nH]c3ccccc23)NC(=O)[C@H](CO)NC(=O)C(C)(C)NC1=O` [Example 201] (cyclo([Bip(4'-COOH)][4Pal][Phe(4-COOH)]G[cisHyp][Trp(βS-Me,4-F)][Aib]SW[αMeD][Ala(4-THP)]Q[Dab]G[dPro(4R-(4-pyridylmethyl))])) stands 0.019 nM; under `C[C@H](O)[C@@H]1NC(=O)[C@](C)(CC(=O)O)NC(=O)[C@H](Cc2c[nH]c3ccccc23)NC(=O)[C@H](CO)NC(=O)C(C)(C)NC(=O)[C@H]([C@@H](C)c2c[nH]c3cccc(F)c23)NC(=O)[C@@H]2C[C@H](F)CN2C(=O)CNC(=O)[C@H](Cc2ccc(C(=O)O)cc2)NC(=O)[C@H](CC23CC(C2)C3)NC(=O)[C@H](Cc2ccc(-c3ccc(C(=O)O)cc3)cc2)NC(=O)[C@H]2C[C@@H](Cc3ccncc3)CN2C(=O)CNC(=O)[C@H](CCN)NC(=O)[C@H](CCC(N)=O)NC1=O` [Example 202] (cyclo([Bip(4'-COOH)][Ala(1-bicyclo(1.1.1)pentyl)][Phe(4-COOH)]G[Pro(cis-4-F)][Trp(βS-Me,4-F)][Aib]SW[αMeD][aThr]Q[Dab]G[dPro(4R-(4-pyridylmethyl))])), 0.013 nM.

With `CC(C)[C@@H]1NC(=O)[C@](C)(CC(=O)O)NC(=O)[C@H](Cc2c[nH]c3ccccc23)NC(=O)[C@H](CO)NC(=O)C(C)(C)NC(=O)[C@H]([C@@H](C)c2c[nH]c3cccc(F)c23)NC(=O)[C@@H]2C[C@H](F)CN2C(=O)CNC(=O)[C@H](Cc2ccc(C(=O)O)cc2)NC(=O)[C@H](CC23CC(C2)C3)NC(=O)[C@H](Cc2ccc(-c3ccc(C(=O)O)cc3)cc2)NC(=O)[C@H]2C[C@@H](Cc3ccncc3)CN2C(=O)CNC(=O)[C@H](CCN)NC(=O)[C@H](CCC(N)=O)NC1=O` [Example 203] (cyclo([Bip(4'-COOH)][Ala(1-bicyclo(1.1.1)pentyl)][Phe(4-COOH)]G[Pro(cis-4-F)][Trp(βS-Me,4-F)][Aib]SW[αMeD]VQ[Dab]G[dPro(4R-(4-pyridylmethyl))])), the IC50 came to 0.016 nM. Under `C[C@@H](c1c[nH]c2cccc(F)c12)[C@@H]1NC(=O)[C@@H]2C[C@H](F)CN2C(=O)CNC(=O)[C@H](Cc2ccc(C(=O)O)cc2)NC(=O)[C@H](CC23CC(C2)C3)NC(=O)[C@H](Cc2ccc(-c3ccc(C(=O)O)cc3)cc2)NC(=O)[C@H]2C[C@@H](Cc3ccncc3)CN2C(=O)CNC(=O)[C@H](CCN)NC(=O)[C@H](CCC(N)=O)NC(=O)[C@H](CC2CCOCC2)NC(=O)[C@@](C)(CO)NC(=O)[C@H](Cc2c[nH]c3ccccc23)NC(=O)[C@H](CO)NC(=O)C(C)(C)NC1=O` [Example 204] (cyclo([Bip(4'-COOH)][Ala(1-bicyclo(1.1.1)pentyl)][Phe(4-COOH)]G[Pro(cis-4-F)][Trp(βS-Me,4-F)][Aib]SW[d(αMeS)][Ala(4-THP)]Q[Dab]G[dPro(4R-(4-pyridylmethyl))])) stands 0.017 nM.

As to `C[C@@H](c1c[nH]c2cccc(F)c12)[C@@H]1NC(=O)[C@@H]2C[C@H](F)CN2C(=O)CNC(=O)[C@H](Cc2ccc(C(=O)O)cc2)NC(=O)[C@H](Cc2ccncc2)NC(=O)[C@H](Cc2ccc(-c3ccc(C(=O)O)cc3)cc2)NC(=O)[C@H]2C[C@@H](Cc3ccncc3)CN2C(=O)CN(C)C(=O)[C@H](CCN)NC(=O)[C@H](CCC(N)=O)NC(=O)[C@H](Cc2cncnc2)NC(=O)C(C)(C)NC(=O)[C@H](Cc2c[nH]c3ccccc23)NC(=O)[C@H](CO)NC(=O)C(C)(C)NC1=O` [Example 205] (cyclo([Bip(4'-COOH)][4Pal][Phe(4-COOH)]G[Pro(cis-4-F)][Trp(βS-Me,4-F)][Aib]SW[Aib][Ala(pyrimidin-5-yl)]Q[Dab][Sar][dPro(4R-(4-pyridylmethyl))])), the IC50 stood at 0.028 nM.

`C[C@@H](c1c[nH]c2cccc(F)c12)[C@@H]1NC(=O)[C@@H]2C[C@H](F)CN2C(=O)CNC(=O)[C@H](Cc2ccc(C(=O)O)cc2)NC(=O)[C@H](Cc2ccncc2)NC(=O)[C@H](Cc2ccc(-c3ccc(C(=O)O)cc3)cc2)NC(=O)[C@H]2C[C@@H](Cc3ccncc3)CN2C(=O)CN(C)C(=O)[C@H](CCN)NC(=O)[C@H](CCC(N)=O)NC(=O)[C@H](Cc2cncnc2)NC(=O)[C@@](C)(CO)NC(=O)[C@H](Cc2c[nH]c3ccccc23)NC(=O)[C@H](CO)NC(=O)C(C)(C)NC1=O` [Example 206] (cyclo([Bip(4'-COOH)][4Pal][Phe(4-COOH)]G[Pro(cis-4-F)][Trp(βS-Me,4-F)][Aib]SW[d(αMeS)][Ala(pyrimidin-5-yl)]Q[Dab][Sar][dPro(4R-(4-pyridylmethyl))])): the IC50 stood at 0.022 nM. Take `C[C@@H](c1c[nH]c2cccc(F)c12)[C@@H]1NC(=O)[C@@H]2C[C@H](O)CN2C(=O)CNC(=O)[C@H](Cc2ccc(C(=O)O)cc2)NC(=O)[C@H](Cc2ccncc2)NC(=O)[C@H](Cc2ccc(-c3ccc(C(=O)O)cc3)cc2)NC(=O)[C@H]2C[C@@H](Cc3ccncc3)CN2C(=O)CN(C)C(=O)[C@H](CCN)NC(=O)[C@H](CCC(N)=O)NC(=O)[C@H](CC2CCOCC2)NC(=O)[C@@](C)(CO)NC(=O)[C@H](Cc2c[nH]c3ccccc23)NC(=O)[C@H](CO)NC(=O)C(C)(C)NC1=O` [Example 207] (cyclo([Bip(4'-COOH)][4Pal][Phe(4-COOH)]G[cisHyp][Trp(βS-Me,4-F)][Aib]SW[d(αMeS)][Ala(4-THP)]Q[Dab][Sar][dPro(4R-(4-pyridylmethyl))])): the IC50 was determined as 0.044 nM.

Consider `C[C@@H](c1c[nH]c2cccc(F)c12)[C@@H]1NC(=O)[C@@H]2C[C@H](F)CN2C(=O)CNC(=O)[C@H](Cc2ccc(C(=O)O)cc2)NC(=O)[C@H](Cc2ccncc2)NC(=O)[C@H](Cc2ccc(-c3ccc(C(=O)O)cc3)cc2)NC(=O)[C@H]2C[C@@H](Cc3ccncc3)CN2C(=O)CN(C)C(=O)[C@H](CCN)NC(=O)[C@H](CCC(N)=O)NC(=O)[C@H](CC2CCOCC2)NC(=O)[C@](C)(CC(=O)O)NC(=O)[C@H](Cc2c[nH]c3ccccc23)NC(=O)[C@H](CO)NC(=O)C(C)(C)NC1=O` [Example 208] (cyclo([Bip(4'-COOH)][4Pal][Phe(4-COOH)]G[Pro(cis-4-F)][Trp(βS-Me,4-F)][Aib]SW[αMeD][Ala(4-THP)]Q[Dab][Sar][dPro(4R-(4-pyridylmethyl))])), for which the IC50 was 0.015 nM. Take `C[C@@H](c1c[nH]c2cccc(F)c12)[C@@H]1NC(=O)[C@@H]2C[C@H](O)CN2C(=O)CNC(=O)[C@H](Cc2ccc(C(=O)O)cc2)NC(=O)[C@H](Cc2ccncc2)NC(=O)[C@H](Cc2ccc(-c3ccc(C(=O)O)cc3)cc2)NC(=O)[C@H]2C[C@@H](Cc3ccncc3)CN2C(=O)CN(C)C(=O)[C@H](CCN)NC(=O)[C@H](CCC(N)=O)NC(=O)[C@H](Cc2cncnc2)NC(=O)[C@](C)(CC(=O)O)NC(=O)[C@H](Cc2c[nH]c3ccccc23)NC(=O)[C@H](CO)NC(=O)C(C)(C)NC1=O` [Example 209] (cyclo([Bip(4'-COOH)][4Pal][Phe(4-COOH)]G[cisHyp][Trp(βS-Me,4-F)][Aib]SW[αMeD][Ala(pyrimidin-5-yl)]Q[Dab][Sar][dPro(4R-(4-pyridylmethyl))])): the half-maximal inhibitory concentration (IC50) is 0.034 nM. Under `C[C@@H](c1c[nH]c2cccc(F)c12)[C@@H]1NC(=O)[C@@H]2C[C@H](O)CN2C(=O)CNC(=O)[C@H](Cc2ccc(C(=O)O)cc2)NC(=O)[C@H](Cc2ccncc2)NC(=O)[C@H](Cc2ccc(-c3ccc(C(=O)O)cc3)cc2)NC(=O)[C@H]2C[C@@H](Cc3ccncc3)CN2C(=O)CN(C)C(=O)[C@H](CCN)NC(=O)[C@H](CCC(N)=O)NC(=O)[C@H](CC2CCOCC2)NC(=O)[C@](C)(CC(=O)O)NC(=O)[C@H](Cc2c[nH]c3ccccc23)NC(=O)[C@H](CO)NC(=O)C(C)(C)NC1=O` [Example 210] (cyclo([Bip(4'-COOH)][4Pal][Phe(4-COOH)]G[cisHyp][Trp(βS-Me,4-F)][Aib]SW[αMeD][Ala(4-THP)]Q[Dab][Sar][dPro(4R-(4-pyridylmethyl))])) stands 0.029 nM; under `C[C@@H](c1c[nH]c2cccc(F)c12)[C@@H]1NC(=O)[C@@H]2C[C@H](F)CN2C(=O)CNC(=O)[C@H](Cc2ccc(C(=O)O)cc2)NC(=O)[C@H](Cc2ccncc2)NC(=O)[C@H](Cc2ccc(-c3ccc(C(=O)O)cc3)cc2)NC(=O)[C@H]2C[C@@H](Cc3ccncc3)CN2C(=O)CNC(=O)[C@H](CCN)NC(=O)[C@H](CCC(N)=O)NC(=O)[C@H](CC2CCOCC2)NC(=O)C(C)(C)NC(=O)[C@H](Cc2c[nH]c3ccccc23)NC(=O)[C@H](CO)NC(=O)C(C)(C)NC1=O` [Example 211] (cyclo([Bip(4'-COOH)][4Pal][Phe(4-COOH)]G[Pro(cis-4-F)][Trp(βS-Me,4-F)][Aib]SW[Aib][Ala(4-THP)]Q[Dab]G[dPro(4R-(4-pyridylmethyl))])), 0.019 nM.
